Where two headings read alike, the source gives them in different places.
Assays:
[1] = system: DnaK and σ32 of E. coli; settings: host E. coli; dnaKp-luxCDABE; increase in intracellular misfolded proteins; cited from earlier work
[2] = system: E. coli MG1655; experiment: Growth of E. coli MG1655 MHT integration strains in LB plus 200 mM KBr; type: cell-based; settings: headspace gas collected at 5 hrs
Text: Three strains carrying an integrated Batis maritima MHT gene (BmMHT) were created by coupling the BmMHT gene to a constitutive promoter (P14) and three ribosomal binding sites (RBS) with different strengths (BCD2, BCD8, BCD14) in the integration vector pOSIP. Each was integrated into the phage 186 attachment site within the genome of E. coli MG1655 using the site specific recombinase from phage 186. Strains having the desired chromosomal insertions were verified by PCR.
Cells with a genomic copy of the MHT construct under control of the three different RBS were then tested for MHT activity by growing the cells in LB plus 200 mM KBr. Headspace gas was collected at 5 hrs, and CH3Br measured by GC-MS.
The CH3Br gas was readily detectable in the headspace, whereas the uninduced vector control cells produced no gas at all.

[3] = biological target: T1, TodST of P. putida (Pseudomonas putida, UniProt A5W4E3); settings: host P. putida str. F1; todXp-luxCDABE; cited from earlier work
T1 construct: host or cells: P. putida str; F1

[4] = system: TbuT of Ralstonia pickettii; settings: host E. coli; tbuAlp-luxAB; cited from earlier work
[5] = biological target: XylR of Pseudomonas putida (Pseudomonas putida, UniProt P06519)
[6] = system: PhnR of Burkholderia sartisoli; settings: host B. sartisoli; phnSp-luxAB; cited from earlier work
[7] = system: SOS response proteins of B. subtilis; settings: host B. subtilis; yorBp-lucFF; cited from earlier work
[8] = system: ArsR of E. coli; settings: host E. coli; arsRp-luxAB; cited from earlier work
[9] = system: FruR of Erwinia herbicola; settings: cited from earlier work
[10] = biological target: T2, NahR of P. putida (Pseudomonas putida, UniProt P10183); settings: host P. putida; nahGp-luxAB; cited from earlier work
T2 construct: host or cells: P. putida
T2 sequence (P10183 1-300): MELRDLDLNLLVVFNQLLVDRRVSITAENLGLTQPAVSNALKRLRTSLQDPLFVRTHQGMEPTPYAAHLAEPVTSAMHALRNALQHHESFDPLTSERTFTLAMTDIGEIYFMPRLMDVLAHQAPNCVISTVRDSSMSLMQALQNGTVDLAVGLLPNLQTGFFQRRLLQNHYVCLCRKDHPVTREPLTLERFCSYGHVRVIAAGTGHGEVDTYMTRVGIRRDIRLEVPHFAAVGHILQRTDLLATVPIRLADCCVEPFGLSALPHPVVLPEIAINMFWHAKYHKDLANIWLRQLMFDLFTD

[11] = system: RecA-LexA of E. coli; settings: host E. coli; reAp-luxCDABE; cited from earlier work
[12] = system: RecA-LexA of E. coli; settings: host E. coli; sfiA-lacZ; cited from earlier work
[13] = system: DmpR of P. putida; settings: host P. putida; Po-luxAB; cited from earlier work
[14] = system: SpoIIID and σ^E of B. subtilis; settings: host B. subtilis; yheI-lucFF; cited from earlier work
[15] = system: MphR of E. coli; settings: host E. coli; mphAp-lacZ; cited from earlier work
[16] = biological target: AraC of E. coli (Escherichia coli, UniProt P0A9E0); settings: cited from earlier work
[17] = system: Crp-cAMP transcriptional dual regulator of E. coli; settings: host E. coli; grpEP-luxCDABE; increase in intracellular misfolded proteins; cited from earlier work
[18] = host Escherichia coli; Pu-lucFF; cited from earlier work

T1 sequence (A5W4E3 whole entry): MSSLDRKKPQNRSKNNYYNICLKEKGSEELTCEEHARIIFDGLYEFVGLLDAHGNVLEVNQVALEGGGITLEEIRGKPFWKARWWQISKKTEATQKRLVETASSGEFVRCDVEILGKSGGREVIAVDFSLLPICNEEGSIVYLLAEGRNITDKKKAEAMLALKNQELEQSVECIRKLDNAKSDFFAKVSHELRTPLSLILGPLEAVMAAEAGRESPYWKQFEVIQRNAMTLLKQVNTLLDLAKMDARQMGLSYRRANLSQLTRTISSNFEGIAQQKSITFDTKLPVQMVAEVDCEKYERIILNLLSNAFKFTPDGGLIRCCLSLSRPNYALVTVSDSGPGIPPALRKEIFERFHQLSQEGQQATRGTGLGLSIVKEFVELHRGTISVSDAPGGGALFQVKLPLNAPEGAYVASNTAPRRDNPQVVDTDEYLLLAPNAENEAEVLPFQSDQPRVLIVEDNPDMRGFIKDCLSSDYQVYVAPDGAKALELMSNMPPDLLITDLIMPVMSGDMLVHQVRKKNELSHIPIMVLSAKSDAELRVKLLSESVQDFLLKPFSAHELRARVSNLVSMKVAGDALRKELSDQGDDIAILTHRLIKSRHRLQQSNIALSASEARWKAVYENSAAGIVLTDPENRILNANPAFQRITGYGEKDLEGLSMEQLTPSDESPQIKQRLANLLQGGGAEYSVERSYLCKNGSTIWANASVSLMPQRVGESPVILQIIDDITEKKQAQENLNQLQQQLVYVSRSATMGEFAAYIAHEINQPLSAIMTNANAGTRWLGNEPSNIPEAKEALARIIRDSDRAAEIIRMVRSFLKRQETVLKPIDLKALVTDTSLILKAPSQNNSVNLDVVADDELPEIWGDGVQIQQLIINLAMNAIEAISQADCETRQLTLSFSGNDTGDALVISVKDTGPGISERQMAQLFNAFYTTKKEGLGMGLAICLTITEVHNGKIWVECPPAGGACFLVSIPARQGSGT
XylR of Pseudomonas putida, sequence (P06519 whole entry): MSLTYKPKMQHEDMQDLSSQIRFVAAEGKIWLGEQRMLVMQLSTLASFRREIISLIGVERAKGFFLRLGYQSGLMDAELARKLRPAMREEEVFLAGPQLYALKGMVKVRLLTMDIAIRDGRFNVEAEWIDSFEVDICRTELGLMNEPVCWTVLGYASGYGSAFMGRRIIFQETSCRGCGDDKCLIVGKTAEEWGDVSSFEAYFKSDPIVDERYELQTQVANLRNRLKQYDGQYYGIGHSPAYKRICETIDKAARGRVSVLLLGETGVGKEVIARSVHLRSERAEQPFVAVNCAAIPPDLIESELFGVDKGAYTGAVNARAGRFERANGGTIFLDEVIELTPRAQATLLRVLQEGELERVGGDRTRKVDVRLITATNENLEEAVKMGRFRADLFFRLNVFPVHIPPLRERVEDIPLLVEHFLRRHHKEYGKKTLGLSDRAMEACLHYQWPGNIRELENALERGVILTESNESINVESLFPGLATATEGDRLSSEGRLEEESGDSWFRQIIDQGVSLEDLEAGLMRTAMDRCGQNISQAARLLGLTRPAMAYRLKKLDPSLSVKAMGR
AraC of E. coli, sequence (P0A9E0 whole entry): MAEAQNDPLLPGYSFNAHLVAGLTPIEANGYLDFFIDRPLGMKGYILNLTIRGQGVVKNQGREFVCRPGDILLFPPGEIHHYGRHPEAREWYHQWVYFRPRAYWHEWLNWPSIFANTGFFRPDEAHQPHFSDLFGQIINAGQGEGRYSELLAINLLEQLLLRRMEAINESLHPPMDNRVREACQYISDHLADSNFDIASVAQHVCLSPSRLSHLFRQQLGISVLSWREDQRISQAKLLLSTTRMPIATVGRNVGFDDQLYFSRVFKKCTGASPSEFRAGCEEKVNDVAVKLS

In the case of `CO` [methanol], the Detection sensitivity [1] is given as 0.25M methanol,.
For `Br` [bromine ions], the “Toxicity to cells (cell growth)” value [2] was “Neither the bromine ions, nor the CH3Br gas were toxic”.
In the case of `CBr` [CH3Br], the “Toxicity to cells (cell growth)” value [2] is reported as “Neither the bromine ions, nor the CH3Br gas were toxic”.
For `Cc1ccccc1` [toluene], the Detection sensitivity [3] is listed as 0.3 µM, the Detection sensitivity [4] is listed as 0.24 µM and the Detection sensitivity [5, 18] is listed as 40 µM.
In the case of `c1ccc2c(c1)ccc1ccccc12` [phenanthrene], the Detection sensitivity [6] is given as 0.17 µM.
For `O=C(O)c1cn(C2CC2)c2cc(N3CCNCC3)c(F)cc2c1=O` [ciprofloxacin], the Detection sensitivity [7] is given as 60 nM.
For `Cc1ccc(C)cc1` [p-xylene], the Detection sensitivity [3] is given as 0.3 µM.
In the case of Arsenite, the Detection sensitivity [8] is listed as 5 nM.
In the case of `O=C(CO)[C@@H](O)[C@H](O)[C@H](O)CO` [Fructose], the Detection sensitivity [9] is given as roughly 2 µM.
For `O=C(O)c1ccccc1O` [salicylate], the Detection sensitivity [10] is listed as 10 nM.
For `Cc1cccc(CO)c1` [3-methylbenzylalcohol], the EC50 ([5]; E. coli, firefly luciferase under XylR and Pu; means±standard deviations; read-out: K1/2 of luminescence concentration dependence; cited from earlier work) is given as 2690 µM.
In the case of mitomycin C, the Detection sensitivity [11] is given as 0.2 nM mitomycin C and the Detection sensitivity [12] is given as 4 nM mitomycin C.
In the case of `Oc1ccccc1` [Phenol], the Detection sensitivity [3] is listed as 0.3 µM and the Detection sensitivity [13] is listed as 3 µM.
For `OC[C@H]1O[C@@](CO)(O[C@H]2O[C@H](CO)[C@@H](O)[C@H](O)[C@H]2O)[C@@H](O)[C@@H]1O` [sucrose], the Detection sensitivity [9] is given as roughly 2 µM.
For `CC(=O)NC[C@H]1CN(c2ccc(N3CCOCC3)c(F)c2)C(=O)O1` [linezolid], the Detection sensitivity [14] is listed as 0.1 µM.
For `c1ccc2ccccc2c1` [Naphthalene], the Detection sensitivity [10] is listed as 10 nM and the Detection sensitivity [6] is listed as 0.17 µM.
In the case of `Cc1cccc(C)c1` [m-xylene], the Detection sensitivity [3] is given as 0.3 µM and the EC50 ([5]; read-out: K1/2 of luminescence concentration dependence; E. coli, firefly luciferase under XylR and Pu; means±standard deviations; cited from earlier work) is given as 39 ± 3.8 µM.
In the case of Xylene, the Detection sensitivity [4] is listed as 0.24 µM and the Detection sensitivity [5, 18] is listed as 40 µM.
In the case of `CC[C@H]1OC(=O)[C@H](C)[C@@H](O[C@H]2C[C@@](C)(OC)[C@@H](O)[C@H](C)O2)[C@H](C)[C@@H](O[C@@H]2O[C@H](C)C[C@H](N(C)C)[C@H]2O)[C@](C)(O)C[C@@H](C)C(=O)[C@H](C)[C@@H](O)[C@]1(C)O` [erythromycin], the Detection sensitivity [15] is listed as roughly 10 µM.
For `ClC=C(Cl)Cl` [trichloroethene], the Detection sensitivity [3] is listed as 0.3 µM.
In the case of `O=C[C@H](O)[C@@H](O)[C@@H](O)CO` [L-Arabinose], the Detection sensitivity [16] is given as 0.5 µM.
For `Oc1c(Cl)c(Cl)c(Cl)c(Cl)c1Cl` [pentachlorophenol], the Detection sensitivity [17] is listed as 0.14 nM.
In the case of `c1ccccc1` [Benzene], the Detection sensitivity [3] is listed as 0.3 µM, the Detection sensitivity [4] is listed as 0.24 µM and the Detection sensitivity [5, 18] is listed as 40 µM.
In the case of antimonite, the Detection sensitivity [8] is listed as 5 nM.

Source: patent publication US20160194683A1, “Gas Biosensors” (priority 2013, published 2016)
